Measurements taken from patent US20100260671A1, “COMPOUNDS AND METHODS FOR THE DIAGNOSIS AND TREATMENT OF AMYLOID ASSOCIATED DISEASES” (THE REGENTS OF THE UNIVERSITY OF CALIFORNIA, priority 2007, published 2010).
“Also recorded” adds a separate entry of the source.

What was measured:
[1] = Octanol/PBS partition coefficient (log P), experimental; conditions: for logP: octanol/PBS buffer
Description: (§1) 15 μM solutions of small molecule are prepared in 5 mL PBS buffer. 5 mL of octanol is added to each aqueous solution of small molecule and the biphasic layers are mixed by rapid vortexing. The mixture is then centrifuged at 250×g to facilitate the formation of two clear layers. The layers are separated and the absolute concentrations of small molecules in each layer are quantified by measuring the absorbance of the layers at the appropriate nm for each compound. The molar extinction coefficient of the compound in octanol and PBS buffer is determined by comparison to standard calibration curves of known quantities of small molecules dissolved in octanol and PBS buffer. The partition coefficient is expressed as logarithm of the ratio of the concentration in octanol divided by the concentration in PBS (i.e., log P).

Aβ fibrils (anti-Aβ IgG) = Aβ fibrils (anti-Aβ IgG) (Homo sapiens, UniProt P05067); conditions: for Emax: read-out: % Max Inhib.
Sequence of Aβ fibrils (anti-Aβ IgG) (P05067 672-713 limits assumed): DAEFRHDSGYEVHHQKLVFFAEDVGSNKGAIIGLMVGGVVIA

Aβ(1-42) ion channels = molecular target: T1, Aβ(1-42) ion channels (Homo sapiens, UniProt P05067); test: Functional ion channel inhibition assay, planar lipid bilayer (Example 7); format: biochemical; conditions: for Inhibition of de-novo Aβ ion channel formation: molar ratio to Aβ 1:1, added at the same time as 37 μM Aβ; for Rank of inhibitory effect on Aβ ion channel activity: repeated experiments
T1 construct: Aβ(1-42) (Biopeptides) was initially dissolved in deionized water at 1 mg/ml (221.5 μM); purchased Biopeptide, Inc.
T1 sequence (P05067 672-713 limits assumed): as above
Excerpt: Functional Ion Channel Inhibition Assays: A functional assay has been developed to investigate the inhibition of neurotoxic ion channel activity of Aβ peptides in reconstituted membrane bilayers and in aneuronal cell line by small molecules. The assay is based on ultra-sensitive electrophysiological recordings of the ion channel activity of Aβ. This ion channel-activity assay is designed to determine whether small molecules that bind to Aβ fibrils will inhibit ion channel activity. Compounds that inhibit ion channel activity are likely candidates for therapeutics and diagnostic agents for amyloid-associated diseases. This Example presents results that nicotine, tannic acid, and Congo Red are able to inhibit the ion channel activity of Aβ oligomers in planar lipid bilayers.
1. The lipid mixture was made from POPE:POPG (Avanti Polar Lipids) at 25 mg/ml (1:1) in Heptane. The pretreatment lipid solution was POPE:POPG 20 mg/mL in Hexane.
2. The bilayer was formed in classic bilayer cups and chamber (Warner Instruments). This 2-part system consists of a black Delrin chamber and a cup of Delrin. Cups and chambers are designed such that addition of equal volumes to the cup and chamber (cis and trans sides) results in a balanced solution height, minimizing any pressure gradients across the bilayer membrane.
3. The bilayer was formed over a 250 μm hole in a partition separating two Delrin compartments, the so called “painting technique.” First, droplets of pretreatment lipid solution were placed on both sides of the hole, using 100 uL-Hamilton syringe. Once the droplet of hexane evaporates, both chambers (cis and trans) were symmetrically filled with 900 uL of buffer solution, 100 mM KH2PO4/K2HPO4 pH 7.4, at room temperature.
4. When the bilayer set-up was already in place with Ag/AgCl electrodes in Faraday cage (a bilayer workstation which provides critical shielding of electromagnetic interference from outside sources and isolate vibration), the lipid solution (POPE:POPG in Heptane) was painted directly over the hole by using a thin paintbrush. A researcher gently blew underneath the hole by using the Pasteur pipette to thin out the bilayer until the appropriate capacitance was obtained (80-120 pF).
5. A voltage of ±100 mV was applied for at least 10 minutes to test stability of lipid bilayer.
Aβ(1-42) (Biopeptides) was initially dissolved in deionized water at 1 mg/ml (221.5 μM), and stored at −20° C. The stock solution is aliquotted to sufficient amount for each time use (90 uL). After the stable bilayer is constituted, the Aβ(1-42) solution was added to the trans side of the chamber to obtain a final concentration of 37 μM. The solution was mixed well in the chamber under stirring for 5 minutes
Congo Red (Sigma) was dissolved in DI Water to achieve a concentration of 2.5 mg/ml (3.58 mM) as a stock solution. (−) Nicotine Hemasulfate (Sigma) was diluted to 1.89 mM in DI Water. Tannic Acid (Riedel-de Haen) was diluted to 20 mM in DI Water.
The solution of inhibitory molecule was added to cis and trans sides to make a desired final concentration (1:1 molar ratio) at the same time as Aβ.
For Nicotine, the solution was added after observing current activities of Aβ to obtain 1:1, 1:2, 1:3, 1:4 molar ratio.

[2] = molecular target: T2, Aβ(1-42) ion channel activity (Homo sapiens, UniProt P05067); test: Planar lipid bilayer Aβ ion channel assay, Method 1 (POPE:POPG, pre-incubated Aβ); format: biochemical; conditions: for membrane lasts: Method 1, incubated at 4:1 with Aβ, average of experiments
T2 construct: Aβ(1-42) (Biopeptides) was initially dissolved in deionized water at 1 mg/ml (221.5 μM); purchased Biopeptide, Inc.
T2 sequence (P05067 672-713 limits assumed): as above
Description: […] The Aβ sample was pre-incubated at RT for 12-18 hours. The molecules of interest can be pre-incubated with Aβ sample at various concentrations.
Bilayer set-up and recording system: Planar lipid bilayer was formed by the so-called “painting technique” over a 250-μm aperture on a Delrin cup (Warner Instruments) separating two compartments (cis and trans) of a bilayer setup. A lipid mixture of 1-palmitoyl-2-oleoyl phosphatidyletanolamine (POPE): palmitoyl-oleyl-phosphatidylglycerol (POPG) (Avanti Polar Lipids), 1:1 at 25 mg mL-1 in heptane was applied to the aperture which is pre-treated with 2 μL of the same lipid mixture (20 mg mL^−1) in hexane on each side. The recording buffer in cis compartment is 100 mM K2HPO4/KH2PO4 pH 7.4, while in the trans compartment a buffer with pre-incubated Aβ overnight was used.

[3] = molecular target: Aβ fibrils (binding of anti-Aβ IgG clone 6E10) (Homo sapiens, UniProt P05067); test: ELISA-based assay: inhibition of anti-Aβ IgG (clone 6E10) binding to Aβ fibrils; conditions: control experiments, FIG. 2 panel c
Sequence of Aβ fibrils (binding of anti-Aβ IgG clone 6E10) (P05067 672-713 limits assumed): as above

[4] = molecular target: T3, Aβ(1-40) ion channel activity (Homo sapiens, UniProt P05067); test: Planar lipid bilayer Aβ ion channel assay, Method 2 (POPE:DOPS, Aβ proteoliposomes); format: biochemical; conditions: for Small molecule concentration at which no ion channel activity is observed: Method 2, added after observing events
T3 construct: Aβ(1-40) (Biopeptide, Inc.) powder was initially solubilized lyophilized in DiH2O at 1 mg/mL; purchased Biopeptide, Inc
T3 sequence (P05067 672-711 limits assumed): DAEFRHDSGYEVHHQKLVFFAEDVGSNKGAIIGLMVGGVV
Description: Method 2: Planar lipid bilayer was formed by the so-called “painting technique” over a 250-μm aperture on a Delrin cup (Warner Instruments) separating two compartments (cis and trans) of a bilayer setup. A lipid mixture of 1-palmitoyl-2-oleoyl phosphatidyletanolamine (POPE) (Avanti Polar Lipids) and Dioleoylphosphatidylserine (DOPS) (Avanti Polar Lipids), 1:1 at 10 mg mL-1 in heptane was applied on the aperture which is pre-treated with 2 μL of the same lipid mixture in hexane on each side. Both compartments were filled symmetrically with 800 μL of 70 mM KCl, […]. A glass pipette with a smooth bent tip was used to blow air bubble under the aperture to thin out the droplet of lipid to obtain a planar lipid bilayer (with capacitance >80 pF). Membrane stability was determined by applying ±100 mV for 10 minutes and monitoring a constant current baseline without instabilities in current. The capacitance of the membrane was monitored throughout the experiment.
Monomerization of Aβ: Aβ powder (Biopeptide, Inc.) was initially solubilized in Hexafluoroisopropanol (HFIP) at 1 mM for 21 hours in a glass vial, with 3 times of vortexing throughout the incubation period. The solution was diluted with cold nanopure water (2:1 H2O:HFIP) vortexed, fractionated in desire amounts, and immediately frozon in a CO2/acetone bath. Each fraction was covered with parafilm that was punctured twice to allow solvent vapors to escape. The fractions were lyophilized for 2 days to obtain monomerized Aβ.
Preparation of Aβ proteoliposomes: Aβ(1-40) (Biopeptide, Inc.) powder was initially solubilized lyophilized in DiH2O at 1 mg/mL and stored in −80° C. before use. 20 μL of DOPS was evaporated in CHCl3 (10 mg mL^−1) under vacuum and formed liposomes using hydration method. After obtaining a thin film of lipid, 30 μL of 1M Potassium Aspartate pH 7.2 was added, followed by 5 minutes of bath sonication. The liposome suspension was then mixed with 20 μL of Aβ (1-40) solution (1 mg/mL) and sonicated for 5 minutes.
In order to promote fusion of Aβ proteoliposomes into the bilayer, an ionic gradient of 370 mM KCl was used on the cis side (the side of proteoliposome addition) and 70 mM KCl on the trans side of the bilayer setup. 10-20 μL of the Aβ proteoliposome solution was added to the cis compartment and stirred vigorously for 5-10 minutes. The molecules of interest can be tested by addition to the chamber after observing events.

Description for physchem: as §1

Structure (SMILES): CN1CCCC1c1cccnc1 (single isomer, unassigned; (-)) [(−)-Nicotine]
- LogP expt'l ([1]; octanol/PBS): 0.20 ± 0.01
- % Max Inhib. (Aβ fibrils (anti-Aβ IgG); anti-Aβ IgG-Aβ fibril binding): 84%
- Conc at Max Inhib. (Aβ fibrils (anti-Aβ IgG); anti-Aβ IgG-Aβ fibril binding): 1,000 mM
- Time to almost complete disruption of preformed ion channels (Aβ(1-42) ion channels; 4-fold molar excess with respect to Aβ): ≤ 10 min
- Disruption of Aβ ion channel activity on addition at increasing concentration (Aβ(1-42) ion channels; added after observing Aβ current, 1:1 to 1:4 molar ratio, 37 μM Aβ): concentration-dependent disruption of Aβ ion channel activity
- Disruption of preformed Aβ ion channels (Aβ(1-42) ion channels; molar ratio nicotine to Aβ 4:1): disrupted preformed Aβ channels almost completely
- Inhibition of de-novo Aβ ion channel formation (Aβ(1-42) ion channels): sufficient to inhibit the de-novo formation of Aβ ion channels; also recorded: did not result in ion channel activity during the entire test period (90 min)
- Rank of inhibitory effect on Aβ ion channel activity (Aβ(1-42) ion channels): strongest inhibitory effect
- membrane lasts / membrane stability ([2]; Method 1, incubated at 2:1): (incubated at 2:1), unstable membrane
- Observe no ion channel activity in (experiments out of total) ([2]; Method 1, incubated at 4:1): Observe no ion channel activity in 4 out of 4
- membrane lasts [2]: (incubated at 4:1), membrane lasts ~70 minutes

Structure (SMILES): O=S(=O)([O-])c1ccc(O)c2ccccc12.[Na+] [1-naphthol-4-sulfonate]
- Inhibition of the interaction between the IgGs and Aβ fibrils (control compound) [3]: No inhibition

Structure (SMILES): c1cncc(C2CCCN2)c1 (stereo not shown) [Compound 7, Nornicotine]
- logP [1]: -0.93 ± 0.04
- Conc at Max Inhib. (Aβ fibrils (anti-Aβ IgG); anti-Aβ IgG-Aβ fibril binding): 700 mM
- Emax (Aβ fibrils (anti-Aβ IgG)): 98%

Structure (SMILES): CN1CCCC1c1cncc(Br)c1 (stereo not shown) [Compound 8, 5-Bromonicotine]
- logP (physchem): 2.1 ± 0.3
- Conc at Max Inhib. (Aβ fibrils (anti-Aβ IgG); anti-Aβ IgG-Aβ fibril binding): 700 mM
- Emax (Aβ fibrils (anti-Aβ IgG)): 83%

Structure (SMILES): OCCOCCOCCOCCN1CCCC1c1cccnc1 (stereo not shown) [Compound 10, 2-(2-(2-(2-(2-(pyridin-3yl)pyrrolidin-1-yl)ethoxy)ethoxy)ethoxy)-ethanol]
- logP [1]: -0.41 ± 0.05
- Conc at Max Inhib. (Aβ fibrils (anti-Aβ IgG); anti-Aβ IgG-Aβ fibril binding): 100 mM
- Emax (Aβ fibrils (anti-Aβ IgG)): 81%

Structure (SMILES): CN1CCC[C@H]1COC(=O)c1cccnc1 [Compound 13, (s)-1-Methylpyrrolidine-2-methyl nicotinate]
- logP [1]: -0.5 ± 0.02
- Conc at Max Inhib. (Aβ fibrils (anti-Aβ IgG); anti-Aβ IgG-Aβ fibril binding): 50 mM
- Emax (Aβ fibrils (anti-Aβ IgG)): 54%

Structure (SMILES): CN1CCC[C@H]1COC(=O)c1cncc(Br)c1 [Compound 14]
- Conc at Max Inhib. (Aβ fibrils (anti-Aβ IgG); anti-Aβ IgG-Aβ fibril binding): 50 mM
- Emax (Aβ fibrils (anti-Aβ IgG)): 68%

Structure (SMILES): CN1CCCC1COC(=O)c1ccccn1 (stereo not shown) [Compound 15, (s)-1-Methylpyrrolidine-2-methyl picolinate]
- logP [1]: 0.69 ± 0.08
- Conc at Max Inhib. (Aβ fibrils (anti-Aβ IgG); anti-Aβ IgG-Aβ fibril binding): 50 mM
- Emax (Aβ fibrils (anti-Aβ IgG)): 51%

Structure (SMILES): Nc1c(/N=N/c2ccc(-c3ccc(/N=N/c4cc(S(=O)(=O)O)c5ccccc5c4N)cc3)cc2)cc(S(=O)(=O)O)c2ccccc12 [Congo Red]
- Rank of inhibitory effect on Aβ ion channel activity (Aβ(1-42) ion channels): then by Congo Red

Structure (SMILES): COc1cc(/C=C/C(=O)CC(=O)/C=C/c2ccc(O)c(OC)c2)ccc1O [Curcumin]
- Observe no ion channel activity in (experiments out of total) ([2]; Method 1, incubated at 2:1): Observe no ion channel activity in 3 out of 6
- membrane lasts / membrane stability ([2]; Method 1, incubated at 2:1): (incubated at 2:1), membrane lasts ~50 minutes

Structure (SMILES): Cl.NCCc1ccc(O)c(O)c1 [Dopamine HCl]
- Observe no ion channel activity in (experiments out of total) ([2]; Method 1, incubated at 4:1): Observe no ion channel activity in 3 out of 4
- membrane lasts [2]: (incubated at 4:1), membrane lasts ~70 minutes

Structure (SMILES): NC[C@H](O)c1ccc(O)c(O)c1.O.O=C(O)C(O)C(O)C(=O)O [L-(−)-norepinephrine (+)-bitartrate salt monohydrate]
- Small molecule concentration at which no ion channel activity is observed [4]: Observe no ion channel activity at 50 μM small

Structure (SMILES): N[C@@H](Cc1ccc(O)c(O)c1)C(=O)O [L-DOPA]
- Membrane observation ([4]; Method 2, 50 μM small molecule): molecule, membrane broke
- Small molecule concentration at which no ion channel activity is observed [4]: Observe no ion channel activity at 50 μM small

Structure (SMILES): CNCCc1ccc(O)c(O)c1.Cl [N-methyl dopamine hydrochloride]
- Small molecule concentration at which no ion channel activity is observed [4]: Observe no ion channel activity at 450 μM small

Structure (SMILES): O=C([O-])c1ccccc1O.[Na+] [Salicylic Acid sodium salt]
- Observe no ion channel activity in (experiments out of total) ([2]; Method 1, incubated at 4:1): Observe no ion channel activity in 3 out of 3
- membrane lasts [2]: (incubated at 4:1), membrane lasts ~45 minutes

Structure (SMILES): O=C(OC[C@H]1O[C@@H](OC(=O)c2cc(O)c(O)c(OC(=O)c3cc(O)c(O)c(O)c3)c2)[C@H](OC(=O)c2cc(O)c(O)c(OC(=O)c3cc(O)c(O)c(O)c3)c2)[C@@H](OC(=O)c2cc(O)c(O)c(OC(=O)c3cc(O)c(O)c(O)c3)c2)[C@@H]1OC(=O)c1cc(O)c(O)c(OC(=O)c2cc(O)c(O)c(O)c2)c1)c1cc(O)c(O)c(OC(=O)c2cc(O)c(O)c(O)c2)c1 [Tannic Acid]
- Inhibition of de-novo Aβ ion channel formation (Aβ(1-42) ion channels): inhibited ion channel activity of Aβ
- Observe no ion channel activity in (experiments out of total) ([2]; Method 1, incubated at 4:1): Observe no ion channel activity in 3 out of 5
- membrane lasts [2]: (incubated at 4:1), membrane lasts ~75 minutes
